The values below come from patent publication US9839642B2, “Beta-tetrazolyl-propionic acids as metallo-beta-lactamase inhibitors” (priority 2014, dated 2017).

The test system of assay [1] is Serratia marcescens expressing IMP-1 (CL5741). In words: Antibiotic potentiation activity: synergistic concentration (MITC95) with imipenem, growth by OD600. It counts as cell-based. The conditions noted are these: 95% inhibition of bacterial growth, strain CL5741. A digest of the protocol:
(§1)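 Strains grown overnight at 35° C, resuspended in saline, diluted 1:100 into 1.1×CAMHB; imipenem at 1 μg/ml or 4 μg/ml with test compound 200 μM to 0.195 μM. Incubated 22 hours to 24 hours at 35° C, OD600 read; MITC95 is lowest compound concentration inhibiting 95% of growth.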

Assay [2] relates to Klebsiella pneumoniae expressing VIM-1 (IHMA599644). The assay is described as above. It counts as cell-based. The conditions noted are these: 95% inhibition of bacterial growth, strain IHMA599644. A digest of the protocol: as §1
The subject of assay [3] is Escherichia coli expressing NDM-1 (CLB30016). Described as above. The format is cell-based. As to conditions: 95% inhibition of bacterial growth, strain CLB30016. A digest of the protocol:
as §1

The target of assay [4] is IMP-1 (Serratia marcescens, UniProt P52699). In words: Enzyme activity: determination of IC50, fluorescence assay with CCF2-FA substrate. It counts as biochemical. The conditions noted are these: enzyme 2 pM, CCF2-FA 1.25 μM, 2 hours at 25° C.; read-out: IMP1 IC50. In outline:
(§2)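 Enzyme (1 pM NDM-1, 2 pM IMP-1, 30 pM VIM-1) incubated with inhibitor (20 to 0.00063 μM) and 1.25 μM CCF2-FA in 100 mM KH2PO4 pH 7, 0.005% Tween-20, 10 μM ZnSO4, 2 h at 25 °C. Fluorescence read at 460 nm (ex 405 nm); IC50 by 4-parameter fit.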

For assay [5], the target named is NDM-1 (Klebsiella pneumoniae, UniProt C7C422). The description is as above. The format is biochemical. As to conditions: enzyme 1 pM, CCF2-FA 1.25 μM, 2 hours at 25° C.; read-out: NDM1 IC50. In outline: as §2
The target in assay [6] is VIM-1 (Pseudomonas aeruginosa, UniProt A0A0F7KYQ8). The description is as above. It counts as biochemical. The conditions noted are these: enzyme 30 pM, CCF2-FA 1.25 μM, 2 hours at 25° C.; read-out: VIM1 IC50. A digest of the protocol:
as §2

Sequence of NDM-1 (C7C422 29-270, looked up, species assumed): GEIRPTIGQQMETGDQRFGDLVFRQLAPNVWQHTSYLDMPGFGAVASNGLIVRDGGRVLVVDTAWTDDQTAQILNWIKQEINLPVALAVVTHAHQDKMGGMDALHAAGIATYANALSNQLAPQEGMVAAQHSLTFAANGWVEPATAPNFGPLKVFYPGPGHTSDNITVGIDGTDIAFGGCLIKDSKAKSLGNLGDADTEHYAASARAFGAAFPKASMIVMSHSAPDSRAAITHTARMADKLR
Sequence of IMP-1 (P52699 19-246, looked up, species assumed): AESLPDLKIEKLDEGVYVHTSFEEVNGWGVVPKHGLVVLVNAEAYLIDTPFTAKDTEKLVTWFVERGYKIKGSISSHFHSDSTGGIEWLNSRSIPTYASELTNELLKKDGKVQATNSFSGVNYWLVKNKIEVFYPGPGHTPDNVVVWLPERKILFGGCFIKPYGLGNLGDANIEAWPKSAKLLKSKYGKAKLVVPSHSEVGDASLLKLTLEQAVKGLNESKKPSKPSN

With `CC(C)[C@H](C(=O)O)[C@H](Cc1ccccc1C1=CCNC1)c1nnn[nH]1` [Example 70, (2S,3S)-4-(2-(2,5-dihydro-1H-pyrrol-3-yl)phenyl)-2-isopropyl-3-(1H-tetrazol-5-yl)butanoic acid], the “IMP1 SM5741 MITC95” value in assay [1] is more than 200 µM. In assay [2], the “VIM1 KP599644 MITC95” value worked out at 50 µM. Further, in assay [3], the “NDM1 EC30016 MITC95” value is 12.5 µM. Further, the concentration for half-maximal inhibition (IC50) in assay [4] was more than 20000 nM; in assay [5], 180 nM; in assay [6], 240 nM.

For `Nc1ccc(-c2ccc(C[C@H](c3nnn[nH]3)[C@@H](C(=O)O)C3CCCC3)cc2)cn1` [Example 72, (2S,3S)-4-(4-(6-aminopyridin-3-yl)phenyl)-2-cyclopentyl-3-(1H-tetrazol-5-yl)butanoic acid], the “IMP1 SM5741 MITC95” value in assay [1] was found to be 0.39 µM. Besides, the “VIM1 KP599644 MITC95” value in assay [2] was found to be 12.5 µM. The “NDM1 EC30016 MITC95” value in assay [3] was 6.2 µM. Also, the IC50 in assay [4] was determined as 19 nM; in assay [5], 5.6 nM; in assay [6], 3.8 nM.

`CC(C)[C@H](C(=O)O)[C@H](Cc1ccc(-c2ccc(N)nc2)cc1)c1nnn[nH]1` [Example 73, (2S,3S)-4-(4-(6-aminopyridin-3-yl)phenyl)-2-isopropyl-3-(1H-tetrazol-5-yl)butanoic acid]: the “IMP1 SM5741 MITC95” value in assay [1] worked out at 1.2 µM. In assay [2], the “VIM1 KP599644 MITC95” value came to 37.5 µM. Further, the “NDM1 EC30016 MITC95” value in assay [3] came to 18.8 µM. The IC50 stood at 40 nM in assay [4], 4.4 nM in assay [5] and 7.1 nM in assay [6].

`CC(C)[C@H](C(=O)O)[C@H](Cc1ccc(-c2ccc(CN)cc2)cc1)c1nnn[nH]1` [Example 74, (2S,3S)-4-(4′-(aminomethyl)-[1,1′-biphenyl]-4-yl)-2-isopropyl-3-(1H-tetrazol-5-yl)butanoic acid]: the “IMP1 SM5741 MITC95” value in assay [1] is 1.6 µM. In addition, the “VIM1 KP599644 MITC95” value in assay [2] stood at 12.5 µM. In assay [3], the “NDM1 EC30016 MITC95” value was 3.1 µM. Also, the concentration for half-maximal inhibition (IC50) in assay [4] is 110 nM; in assay [5], 34 nM; in assay [6], 18 nM.

For `NCc1ccc(-c2ccc(C[C@H](c3nnn[nH]3)[C@@H](C(=O)O)C3CCCC3)cc2)cc1` [Example 75, (2S,3S)-4-(4′-(aminomethyl)-[1,1′-biphenyl]-4-yl)-2-cyclopentyl-3-(1H-tetrazol-5-yl)butanoic acid], in assay [1], the “IMP1 SM5741 MITC95” value was determined as 0.78 µM. For the same compound, the “VIM1 KP599644 MITC95” value in assay [2] was 9.4 µM. In assay [3], the “NDM1 EC30016 MITC95” value was 3.1 µM. Moreover, the results for the concentration for half-maximal inhibition (IC50) in assay [4], in assay [5] and in assay [6] were 36 nM, 25 nM and 4.3 nM, respectively.

Take `CC(C)[C@H](C(=O)O)[C@H](Cc1ccc(-c2ccc3c(c2)CNC3)nc1)c1nnn[nH]1` [Example 76, (2S,3S)-4-(6-(isoindolin-5-yl)pyridin-3-yl)-2-isopropyl-3-(1H-tetrazol-5-yl)butanoic acid]: the “IMP1 SM5741 MITC95” value in assay [1] was found to be 37.5 µM. For the same compound, the “VIM1 KP599644 MITC95” value in assay [2] turned out to be 18.8 µM. Besides, the “NDM1 EC30016 MITC95” value in assay [3] is 9.4 µM. In addition, the results for the 50% inhibitory concentration (IC50) in assay [4], in assay [5] and in assay [6] were 2600 nM, 120 nM and 18 nM, respectively.

Regarding `CC(C)[C@H](C(=O)O)[C@H](Cc1ccc(-c2cnc(NCCO)nc2)cc1)c1nnn[nH]1` [Example 77, (2S,3S)-4-(4-(2-((2-hydroxyethyl)amino)pyrimidin-5-yl)phenyl)-2-isopropyl-3-(1H-tetrazol-5-yl)butanoic acid], the “IMP1 SM5741 MITC95” value in assay [1] amounted to 4.7 µM. Besides, in assay [2], the “VIM1 KP599644 MITC95” value turned out to be 50 µM. In assay [3], the “NDM1 EC30016 MITC95” value is 6.2 µM. Besides, the IC50 in assay [4] was determined as 99 nM; in assay [5], 6.1 nM; in assay [6], 5.7 nM.

As to `CC(C)[C@H](C(=O)O)[C@H](Cc1ccc(C2CCNC2)cc1)c1nnn[nH]1` (stereo partly drawn) [Example 78, (2S,3S)-2-isopropyl-4-(4-(pyrrolidin-3-yl)phenyl)-3-(1H-tetrazol-5-yl)butanoic acid], in assay [1], the “IMP1 SM5741 MITC95” value amounted to 6.2 µM. In assay [2], the “VIM1 KP599644 MITC95” value came out at 6.2 µM. The “NDM1 EC30016 MITC95” value in assay [3] stood at 3.1 µM. For the same compound, the IC50 in assay [4] was determined as 460 nM; in assay [5], 23 nM; in assay [6], 4.5 nM.
